In ChEMBL document CHEMBL1201862, “PubChem BioAssay data set” (2004):
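Compound exposure: 48 hours, 5 concentrations, 96-well plates. GI50: concentration for 50% inhibition of growth.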 The source made the active and inactive calls. Rule as the data show it: active = GI50 up to about 1.1 µM and inactive = higher.

Key:
Assay in all cases: growth of human tumour cells (NCI), 48 h
[1] = test system: HCC 2998
[2] = test system: SR
[3] = test system: SK-MEL-2
[4] = test system: DU-145
[5] = test system: LOX IMVI
[6] = test system: RXF 393
[7] = test system: NCI-H23
[8] = test system: A498
[9] = test system: OVCAR-8
[10] = test system: NCI-H226
[11] = test system: RPMI-8226
[12] = test system: UACC-257
[13] = test system: SNB-75
[14] = test system: 786-0
[15] = test system: SN12C
[16] = test system: IGROV-1
[17] = test system: SF-295
[18] = test system: KM12
[19] = test system: NCI-H522
[20] = test system: SK-OV-3

Row | Structure (SMILES) | GI50 [1] | GI50 [2] | GI50 [3] | GI50 [4] | GI50 [5] | GI50 [6] | GI50 [7] | GI50 [8] | GI50 [9] | GI50 [10] | GI50 [11] | GI50 [12] | GI50 [13] | GI50 [14] | GI50 [15] | GI50 [16] | GI50 [17] | GI50 [18] | GI50 [19] | GI50 [20]
1 | COc1cccc(C2c3cc4c(cc3OC(O)C2C)OCO4)c1OC (stereo unspecified) | 14.9 µM (inactive) | 2.48 µM (inactive) | 5.2 µM (inactive) | 2.98 µM (inactive) | 4.05 µM (inactive) | 3.4 µM (inactive) | 14.4 µM (inactive) | 4.49 µM (inactive) | 3.06 µM (inactive) | 2.51 µM (inactive) | 2.13 µM (inactive) | 7.18 µM (inactive) | 2.36 µM (inactive) | 3.29 µM (inactive) | 4.78 µM (inactive) | 4.65 µM (inactive) | 3.26 µM (inactive) | 5.04 µM (inactive) |  | 
2 | CN(C)c1ccc(/C=C2\Oc3cc(O)ccc3C2=O)cc1 | > 100 µM (inactive) | 52 µM (inactive) |  | > 100 µM (inactive) |  | > 100 µM (inactive) | > 100 µM (inactive) |  | > 100 µM (inactive) | > 100 µM (inactive) | 74.1 µM (inactive) | > 100 µM (inactive) | 79.6 µM (inactive) | > 100 µM (inactive) | 62.4 µM (inactive) | > 100 µM (inactive) | 30.5 µM (inactive) | 61.2 µM (inactive) | 28.1 µM (inactive) | > 100 µM (inactive)
3 | c1ccc(/C(=N/Nc2nc3ccccc3s2)C2CCCCC2)nc1 | < 0.01 µM (active) | 3.88 µM (inactive) | 15.7 µM (inactive) | 12.6 µM (inactive) | 13.6 µM (inactive) | 11.7 µM (inactive) | 6.4 µM (inactive) | 16.6 µM (inactive) | 4.16 µM (inactive) | 10 µM (inactive) | 3.94 µM (inactive) | 4.32 µM (inactive) |  | 7.29 µM (inactive) | 9.44 µM (inactive) | 4.43 µM (inactive) | 15.8 µM (inactive) | 10 µM (inactive) | 2.76 µM (inactive) | 4.67 µM (inactive)
4 | NNC(=O)c1cc(Cl)ccc1NC(=O)C12CC3CC(CC(C3)C1)C2 | 18.5 µM (inactive) | 14.4 µM (inactive) | 37.8 µM (inactive) | 44.8 µM (inactive) | 32 µM (inactive) | 37.8 µM (inactive) | 37.6 µM (inactive) |  | 30.4 µM (inactive) | > 100 µM (inactive) | 24 µM (inactive) | 29.3 µM (inactive) | 42.9 µM (inactive) | 21.4 µM (inactive) | 20.5 µM (inactive) | 30.8 µM (inactive) | 39.5 µM (inactive) | 30.1 µM (inactive) | 25.4 µM (inactive) | 28.7 µM (inactive)
5 | O=C1CCCC2C3CC(CN12)C1CCCCN1C3.[O-][Cl+3]([O-])([O-])O (stereo unspecified) | > 100 µM (inactive) | > 100 µM (inactive) | > 100 µM (inactive) | > 100 µM (inactive) | > 100 µM (inactive) | > 100 µM (inactive) | > 100 µM (inactive) | > 100 µM (inactive) | > 100 µM (inactive) | > 100 µM (inactive) | > 100 µM (inactive) | > 100 µM (inactive) |  | > 100 µM (inactive) | > 100 µM (inactive) | > 100 µM (inactive) | > 100 µM (inactive) | > 100 µM (inactive) | > 100 µM (inactive) | > 100 µM (inactive)
6 | CCOC(=O)c1nnsc1NC(=O)NCCCCCCn1c(=O)n(CCCCCCNC(=O)Nc2snnc2C(=O)OCC)c(=O)n(CCCCCCNC(=O)Nc2snnc2C(=O)OCC)c1=O | 39.5 µM (inactive) | > 100 µM (inactive) | > 100 µM (inactive) | 49.3 µM (inactive) |  | 13.5 µM (inactive) | 24.9 µM (inactive) | 67.1 µM (inactive) | 35.8 µM (inactive) | 18.1 µM (inactive) | 11 µM (inactive) | 85.3 µM (inactive) | 29.1 µM (inactive) | 16.7 µM (inactive) | 33.3 µM (inactive) | 32.1 µM (inactive) | 16.9 µM (inactive) | 93.3 µM (inactive) |  | 40.2 µM (inactive)
7 | COc1cc([C@@H]2c3cc4c(c(O)c3C[C@H]3COC(=O)[C@@H]32)OCO4)cc(OC)c1OC [BETA-PELTATIN A] | 0.015 µM (active) | 109 µM (inactive) | 0.015 µM (active) | < 0.0241 µM (active) | 0.0267 µM (active) |  |  |  | 0.015 µM (active) | 0.302 µM (active) | 0.015 µM (active) |  | 1.61 µM (inactive) | 0.0241 µM (active) | 0.015 µM (active) | 0.015 µM (active) | 0.0238 µM (active) | 0.015 µM (active) | 0.0676 µM (active) | 
8 | CC1(C)OCC(COC(=O)NCn2cc(-c3ccccc3)nn2)O1 (stereo unspecified) | 26.2 µM (inactive) | > 100 µM (inactive) | > 100 µM (inactive) | > 100 µM (inactive) | > 100 µM (inactive) |  | > 100 µM (inactive) |  | > 100 µM (inactive) | > 100 µM (inactive) | > 100 µM (inactive) | > 100 µM (inactive) | > 100 µM (inactive) | > 100 µM (inactive) | > 100 µM (inactive) | > 100 µM (inactive) | > 100 µM (inactive) | > 100 µM (inactive) | > 100 µM (inactive) | 
9 | O=Nc1c(-c2c(O)[nH]c3ccccc23)[nH]c2ccccc12 [INDIRUBIN-3-MONOXIME] | 4.27 µM (inactive) | 4.85 µM (inactive) | 1.91 µM (inactive) | 2.63 µM (inactive) | 3.86 µM (inactive) | 1.93 µM (inactive) | 7.83 µM (inactive) | 2.29 µM (inactive) | 4.45 µM (inactive) |  | 3.95 µM (inactive) | 18.3 µM (inactive) | 3.88 µM (inactive) | 7.57 µM (inactive) | 2.98 µM (inactive) | 2.67 µM (inactive) | 10.1 µM (inactive) | 0.0865 µM (active) | 3.48 µM (inactive) | 1.56 µM (inactive)
10 | CON(C)C(=O)C(C)NC(=O)OC(C)(C)C (stereo unspecified) | > 100 µM (inactive) | > 100 µM (inactive) |  | > 100 µM (inactive) |  | > 100 µM (inactive) | > 100 µM (inactive) | > 100 µM (inactive) | > 100 µM (inactive) | > 100 µM (inactive) | > 100 µM (inactive) | > 100 µM (inactive) | > 100 µM (inactive) | > 100 µM (inactive) | > 100 µM (inactive) | > 100 µM (inactive) | > 100 µM (inactive) | > 100 µM (inactive) |  | > 100 µM (inactive)
11 | CC1(O)C(=O)OC2CC([C@]3(O)CCC4[C@@H]5C[C@H]6O[C@]67[C@@H](O)C=CC(=O)[C@]7(C)C5CC[C@@]43C)C1(C)C2 (stereo partly specified) | 42 µM (inactive) | 2.69 µM (inactive) | 13.8 µM (inactive) | 26.5 µM (inactive) | 4.54 µM (inactive) | 3.63 µM (inactive) | 7.13 µM (inactive) | 31.3 µM (inactive) | 25.1 µM (inactive) |  | 3.24 µM (inactive) | 11.5 µM (inactive) | 29.8 µM (inactive) | 12.9 µM (inactive) | 16.5 µM (inactive) | 23.1 µM (inactive) | 34.6 µM (inactive) | 27 µM (inactive) | 1.82 µM (inactive) | 47.9 µM (inactive)
12 | C=C1C(=O)O[C@H]2C[C@@H]1C(=O)CC(C)CCCC(C)=CCC[C@@]2(C)O (stereo partly specified) | > 25 µM (inactive) | 16.8 µM (inactive) | > 25 µM (inactive) | > 25 µM (inactive) | > 25 µM (inactive) | > 25 µM (inactive) | > 25 µM (inactive) | > 25 µM (inactive) | > 25 µM (inactive) | > 25 µM (inactive) | > 25 µM (inactive) | > 25 µM (inactive) |  | > 25 µM (inactive) | > 25 µM (inactive) | > 25 µM (inactive) | > 25 µM (inactive) | > 25 µM (inactive) | > 25 µM (inactive) | > 25 µM (inactive)
13 | C/C=C/C=C/c1nc(C#N)c(N)o1 | > 100 µM (inactive) | > 100 µM (inactive) | > 100 µM (inactive) | > 100 µM (inactive) | > 100 µM (inactive) | > 100 µM (inactive) | > 100 µM (inactive) |  | > 100 µM (inactive) | > 100 µM (inactive) | > 100 µM (inactive) | > 100 µM (inactive) | > 100 µM (inactive) | > 100 µM (inactive) | > 100 µM (inactive) | > 100 µM (inactive) | > 100 µM (inactive) |  | 41.6 µM (inactive) | > 100 µM (inactive)
14 | CCOC(=O)C(=O)C(=O)NN(C)C1=NCCN1 | > 100 µM (inactive) | > 100 µM (inactive) | > 100 µM (inactive) | > 100 µM (inactive) | > 100 µM (inactive) | > 100 µM (inactive) | > 100 µM (inactive) |  | > 100 µM (inactive) | > 100 µM (inactive) | > 100 µM (inactive) | > 100 µM (inactive) | > 100 µM (inactive) | > 100 µM (inactive) | > 100 µM (inactive) | > 100 µM (inactive) | > 100 µM (inactive) | > 100 µM (inactive) | > 100 µM (inactive) | > 100 µM (inactive)
15 | Nc1ccn([C@H]2CO[C@@H](CO)[C@@H]2O)c(=O)n1 | > 100 µM (inactive) | > 100 µM (inactive) | > 100 µM (inactive) | > 100 µM (inactive) | > 100 µM (inactive) | > 100 µM (inactive) | > 100 µM (inactive) | > 100 µM (inactive) |  | > 100 µM (inactive) | > 100 µM (inactive) | > 100 µM (inactive) | > 100 µM (inactive) | > 100 µM (inactive) | > 100 µM (inactive) | > 100 µM (inactive) | > 100 µM (inactive) | > 100 µM (inactive) |  | > 100 µM (inactive)
